The structures appear in SMILES notation. Some results are limits rather than exact numbers.

In experiment [1] the target is Carbonic anhydrase 12 (Homo sapiens, UniProt O43570). The experiment can be described thus: Inhibition of recombinant human carbonic anhydrase 12 assessed as inhibition constant preincubated with enzyme for 10 mins by phenol red dye based stopped flow CO2 hydration assay.
The target of experiment [2] is Carbonic anhydrase 2 (Homo sapiens, UniProt P00918). The experiment can be described thus: Inhibition of recombinant human carbonic anhydrase 2 assessed as inhibition constant preincubated with enzyme for 10 mins by phenol red dye based stopped flow CO2 hydration assay.
The target in experiment [3] is Carbonic anhydrase 9 (Homo sapiens, UniProt Q16790). The experiment can be described thus: Inhibition of recombinant human carbonic anhydrase 9 assessed as inhibition constant preincubated with enzyme for 10 mins by phenol red dye based stopped flow CO2 hydration assay.
Experiment [4] has as its target Carbonic anhydrase 1 (Homo sapiens, UniProt P00915). The experiment can be described thus: Inhibition of recombinant human carbonic anhydrase 1 assessed as inhibition constant preincubated with enzyme for 10 mins by phenol red dye based stopped flow CO2 hydration assay.

Chain of Carbonic anhydrase 12 (O43570 whole entry): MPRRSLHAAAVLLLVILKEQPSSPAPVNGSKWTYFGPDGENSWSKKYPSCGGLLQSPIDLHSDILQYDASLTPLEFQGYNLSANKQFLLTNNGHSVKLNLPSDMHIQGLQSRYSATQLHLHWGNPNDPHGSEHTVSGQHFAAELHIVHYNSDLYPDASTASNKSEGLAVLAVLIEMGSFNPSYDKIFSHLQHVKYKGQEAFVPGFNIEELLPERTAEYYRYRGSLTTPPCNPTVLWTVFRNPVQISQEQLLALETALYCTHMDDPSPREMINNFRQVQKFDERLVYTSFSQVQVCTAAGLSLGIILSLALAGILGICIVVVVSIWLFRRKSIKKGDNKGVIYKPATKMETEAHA
Chain of Carbonic anhydrase 1 (P00915 whole entry): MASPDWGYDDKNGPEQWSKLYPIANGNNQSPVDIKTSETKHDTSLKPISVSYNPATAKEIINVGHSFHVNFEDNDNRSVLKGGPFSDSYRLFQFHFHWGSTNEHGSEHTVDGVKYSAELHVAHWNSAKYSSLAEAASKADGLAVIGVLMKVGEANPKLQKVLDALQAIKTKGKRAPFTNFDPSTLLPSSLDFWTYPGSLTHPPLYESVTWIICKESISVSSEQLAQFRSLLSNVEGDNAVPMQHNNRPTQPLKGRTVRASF

As a reminder, the Ki is a measure of affinity in units of concentration, obtained from inhibition or displacement. Turning to `COc1cc(/C=C/C(=O)Nc2ccc3c(c2)C=CS(=O)(=O)O3)cc(OC)c1OC`, the inhibition constant (Ki) was 208 nM in experiment [1], greater than 10000 nM in experiment [2], 536 nM in experiment [3] and greater than 10000 nM in experiment [4].
On to `COc1ccc(/C=C/C(=O)Nc2ccc3c(C)cc(=O)oc3c2)cc1OC`, for which the Ki in experiment [1] was 644 nM; in experiment [2], greater than 10000 nM; in experiment [3], 3040 nM; in experiment [4], greater than 10000 nM.
Regarding `Cc1cc(=O)oc2cc(NC(=O)/C=C/c3ccc(F)cc3)ccc12`, the inhibition constant Ki in experiment [1] is 604 nM; in experiment [2], greater than 10000 nM; in experiment [3] it was 682 nM; in experiment [4], greater than 10000 nM.
As to `O=C(/C=C/c1ccccc1OC(F)F)Nc1ccc2c(c1)C=CS(=O)(=O)O2`, the Ki in experiment [1] was 349 nM; in experiment [2], greater than 10000 nM; in experiment [3], 92.8 nM; in experiment [4], greater than 10000 nM.
As to `O=C(/C=C/c1ccccc1OC(F)F)Nc1ccc2oc(=O)ccc2c1`, the Ki in experiment [1] is 394 nM; in experiment [2], greater than 10000 nM; in experiment [3] it was 384 nM; in experiment [4] it was greater than 10000 nM.
Take `COc1ccc(/C=C/C(=O)Nc2ccc3c(C)cc(=O)oc3c2)c(F)c1`: the Ki in experiment [1] is 847 nM; in experiment [2] it was greater than 10000 nM; in experiment [3], 817 nM; in experiment [4] it was greater than 10000 nM.
Consider `O=C(/C=C/c1ccc(Cl)cc1)Nc1ccc2oc(=O)ccc2c1`, for which the Ki in experiment [1] was 343 nM; in experiment [2], greater than 10000 nM; in experiment [3] it was 88.9 nM; in experiment [4], greater than 10000 nM.
Regarding `Cc1cc(=O)oc2cc(NC(=O)/C=C/c3ccccc3OC(F)F)ccc12`, the Ki in experiment [1] is 567 nM; in experiment [2], greater than 10000 nM; in experiment [3], 488 nM; in experiment [4], greater than 10000 nM.
On to `O=C(/C=C/c1ccc(F)cc1)Nc1ccc2oc(=O)ccc2c1`, for which the Ki in experiment [1] was 265 nM; in experiment [2], greater than 10000 nM; in experiment [3], 40.9 nM; in experiment [4], greater than 10000 nM.
With `NS(=O)(=O)c1ccc(NC(=O)/C=C/c2ccccc2OC(F)F)cc1`, the Ki in experiment [3] was determined as 6 nM.
Regarding `O=C(/C=C/c1ccc(F)c(F)c1)Nc1ccc2oc(=O)ccc2c1`, the Ki in experiment [1] was 206 nM; in experiment [2] it was greater than 10000 nM; in experiment [3], 340 nM; in experiment [4] it was greater than 10000 nM.
On to `O=C(/C=C/c1ccccc1)Nc1ccc2oc(=O)ccc2c1`, for which the Ki in experiment [1] was 829 nM; in experiment [2] it was greater than 10000 nM; in experiment [3] it was 131 nM; in experiment [4], greater than 10000 nM.
For the compound `Cc1cc(=O)oc2cc(NC(=O)/C=C/c3cccc(F)c3)ccc12`, the inhibition constant Ki in experiment [1] was 539 nM; in experiment [2] it was greater than 10000 nM; in experiment [3], 639 nM; in experiment [4] it was greater than 10000 nM.
For `N#Cc1ccc(/C=C/C(=O)Nc2ccc3c(c2)C=CS(=O)(=O)O3)cc1`, the Ki in experiment [1] was 520 nM; in experiment [2], greater than 10000 nM; in experiment [3], 39.8 nM; in experiment [4], greater than 10000 nM.
For `O=C(/C=C/c1cccc(C(F)(F)F)c1)Nc1ccc2c(c1)C=CS(=O)(=O)O2`, the Ki in experiment [1] was 480 nM; in experiment [2] it was greater than 10000 nM; in experiment [3], 65.4 nM; in experiment [4], greater than 10000 nM.
Turning to `COc1cc(/C=C/C(=O)Nc2ccc3c(C)cc(=O)oc3c2)cc(OC)c1OC`, the Ki in experiment [1] was 631 nM; in experiment [2], greater than 10000 nM; in experiment [3], 647 nM; in experiment [4], greater than 10000 nM.
On to `O=C(/C=C/c1cccc(F)c1)Nc1ccc2oc(=O)ccc2c1`, for which the Ki in experiment [1] was 411 nM; in experiment [2] it was greater than 10000 nM; in experiment [3], 43 nM; in experiment [4], greater than 10000 nM.
On to `O=C(/C=C/c1ccc(C(F)(F)F)cc1)Nc1ccc2oc(=O)ccc2c1`, for which the Ki in experiment [1] is 236 nM; in experiment [2], greater than 10000 nM; in experiment [3], 91.1 nM; in experiment [4] it was greater than 10000 nM.
`COc1ccc(/C=C/C(=O)Nc2ccc3oc(=O)ccc3c2)c(F)c1`: the Ki in experiment [1] is 137 nM; in experiment [2], greater than 10000 nM; in experiment [3] it was 472 nM; in experiment [4], greater than 10000 nM.
Take `COc1ccc(/C=C/C(=O)Nc2ccc3oc(=O)ccc3c2)cc1OC`: the Ki in experiment [1] is 15.5 nM; in experiment [2], greater than 10000 nM; in experiment [3], 321 nM; in experiment [4] it was greater than 10000 nM.
On to `O=C(/C=C/c1cccc([N+](=O)[O-])c1)Nc1ccc2oc(=O)ccc2c1`, for which the Ki in experiment [1] is 557 nM; in experiment [2], greater than 10000 nM; in experiment [3], 7210 nM; in experiment [4] it was greater than 10000 nM.
On to `O=C(/C=C/c1ccc(F)c(F)c1)Nc1ccc2c(c1)C=CS(=O)(=O)O2`, for which the Ki in experiment [1] is 568 nM; in experiment [2] it was greater than 10000 nM; in experiment [3] it was 720 nM; in experiment [4] it was greater than 10000 nM.
On to `Cc1cc(=O)oc2cc(NC(=O)NS(=O)(=O)c3ccc(F)cc3)ccc12`, for which the inhibition constant (Ki) in experiment [1] turned out to be 1.8 nM; in experiment [3], 20.2 nM.
Take `Cc1cc(=O)oc2cc(NC(=O)/C=C/c3ccc(F)c(F)c3)ccc12`: the Ki in experiment [1] is 699 nM; in experiment [2], greater than 10000 nM; in experiment [3] it was 773 nM; in experiment [4], greater than 10000 nM.
Consider `Cc1cc(=O)oc2cc(NC(=O)/C=C/c3ccc(C#N)cc3)ccc12`, for which the Ki was 575 nM in experiment [1], greater than 10000 nM in experiment [2], 854 nM in experiment [3] and greater than 10000 nM in experiment [4].
Turning to `O=C(/C=C/c1ccc(F)cc1)Nc1ccc2c(c1)C=CS(=O)(=O)O2`, the Ki is 506 nM in experiment [1], greater than 10000 nM in experiment [2], 517 nM in experiment [3] and greater than 10000 nM in experiment [4].
For `O=C(/C=C/c1cc(Cl)cc(Cl)c1)Nc1ccc2oc(=O)ccc2c1`, the Ki was 701 nM in experiment [1], greater than 10000 nM in experiment [2], 305 nM in experiment [3] and greater than 10000 nM in experiment [4].
For `COc1ccc(/C=C/C(=O)Nc2ccc3oc(=O)ccc3c2)cc1`, the Ki in experiment [1] was 427 nM; in experiment [2], greater than 10000 nM; in experiment [3] it was 884 nM; in experiment [4], greater than 10000 nM.
`O=C(/C=C/c1cccc(C(F)(F)F)c1)Nc1ccc2oc(=O)ccc2c1`: the Ki in experiment [1] was 221 nM; in experiment [2] it was greater than 10000 nM; in experiment [3], 88 nM; in experiment [4], greater than 10000 nM.
Turning to `COc1ccc(/C=C/C(=O)Nc2ccc3c(c2)C=CS(=O)(=O)O3)c(F)c1`, the Ki in experiment [1] was 399 nM; in experiment [2] it was greater than 10000 nM; in experiment [3] it was 80.4 nM; in experiment [4] it was greater than 10000 nM.
Regarding `COc1cc(/C=C/C(=O)Nc2ccc3oc(=O)ccc3c2)cc(OC)c1OC`, the Ki was 149 nM in experiment [1], greater than 10000 nM in experiment [2], 157 nM in experiment [3] and greater than 10000 nM in experiment [4].
Take `COc1ccc(/C=C/C(=O)Nc2ccc3oc(=O)ccc3c2)c(OC)c1`: the Ki is 446 nM in experiment [1], greater than 10000 nM in experiment [2], 87.4 nM in experiment [3] and greater than 10000 nM in experiment [4].
Regarding `Cc1cc(=O)oc2cc(NC(=O)/C=C/c3ccccc3)ccc12`, the Ki is 649 nM in experiment [1], greater than 10000 nM in experiment [2], 514 nM in experiment [3] and greater than 10000 nM in experiment [4].
Take `N#Cc1ccc(/C=C/C(=O)Nc2ccc3oc(=O)ccc3c2)cc1`: the Ki in experiment [1] was 760 nM; in experiment [2] it was greater than 10000 nM; in experiment [3], 881 nM; in experiment [4] it was greater than 10000 nM.

The record behind these values is ChEMBL document CHEMBL4725278, “New coumarin/sulfocoumarin linked phenylacrylamides as selective transmembrane carbonic anhydrase inhibitors: Synthesis and in-vitro biological evaluation” (Bioorg Med Chem, 2020).
